In one test the target is BIR3 domain of XIAP (Homo sapiens (Human), UniProt P98170). The test can be described thus: TR-FRET assay for BIR3 (inhibition of binding of XIAP BIR3 domain to SMAC-derived Peptide A). The settings on record: 6x His-tagged BIR3 domain (aa 241-356 of XIAP) 10 nM, Peptide A 20 nM, TR-FRET.
In another test the target is BIR2 domain of XIAP (Homo sapiens (Human), UniProt P98170, C202A/C213G). The test can be described thus: TR-FRET assay for BIR2 (inhibition of binding of XIAP BIR2 domain to SMAC-derived Peptide A). As to conditions: 6x His-tagged BIR2 domain (aa 124-240 of XIAP) 10 nM, Peptide A 20 nM, TR-FRET; read-out: IC50 BIR2. (In general: TR-FRET usually uses a lanthanide donor and a delayed reading to cut background.)

This is an account of results in patent publication US10053431B2, “Tetrahydro-benzodiazepinones” (priority 2013, dated 2018).

Structures can show the parent of a compound that is named as a salt.

Chain of BIR3 domain of XIAP (P98170 241-356 with tags or gaps limits assumed): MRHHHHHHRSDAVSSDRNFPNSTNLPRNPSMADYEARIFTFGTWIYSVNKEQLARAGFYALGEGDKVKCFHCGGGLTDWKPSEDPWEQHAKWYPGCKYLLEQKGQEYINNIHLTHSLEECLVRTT
Chain of BIR2 domain of XIAP (P98170 124-240 with tags or gaps C202A/C213G limits assumed): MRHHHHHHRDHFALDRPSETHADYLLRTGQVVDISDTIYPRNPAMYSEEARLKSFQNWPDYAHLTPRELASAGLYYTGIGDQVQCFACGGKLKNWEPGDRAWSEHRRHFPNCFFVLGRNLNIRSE

A word on the IC50: it is the concentration at which inhibition is half-maximal. For `CN[C@@H](C)C(=O)N[C@H]1CN(C(=O)CCCN)c2ccccc2N(Cc2c(OC)ccc3cc(C(=O)OC)ccc23)C1=O` [Example 49, 5-[(S)-5-(4-Amino-butyryl)-3-((S)-2-methylamino-propionylamino)-2-oxo-2,3,4,5-tetrahydro-benzo[b][1,4]diazepin-1-ylmethyl]-6-methoxy-naphthalene-2-carboxylic acid methyl ester hydrochloride], the half-maximal inhibitory concentration (IC50) on BIR3 domain of XIAP is greater than 54800 nM; on BIR2 domain of XIAP, 127 nM.

Turning to `CN[C@@H](C)C(=O)N[C@H]1CN2C(=O)CCCNC(=O)c3ccc4c(c(OC)ccc4c3)CN(C1=O)c1ccccc12` [Example 51, Cyclic-5-[(S)-5-(4-Amino-butyryl)-3-((S)-2-methylamino-propionylamino)-2-oxo-2,3,4,5-tetrahydro-benzo[b][1,4]diazepin-1-ylmethyl]-6-methoxy-naphthalene-2-carboxylic amide hydrochloride], the IC50 at BIR3 domain of XIAP came to 42800 nM; at BIR2 domain of XIAP it was 58 nM.

Take `CN[C@@H](C)C(=O)N[C@H]1CN2C(=O)CCCCNC(=O)c3ccc4c(c(OC)ccc4c3)CN(C1=O)c1ccccc12` [Example 54, Cyclic-5-[(S)-5-(5-amino-pentanoyl)-3-((S)-2-methylamino-propionylamino)-2-oxo-2,3,4,5-tetrahydro-benzo[b][1,4]diazepin-1-ylmethyl]-6-methoxy-naphthalene-2-carboxylic amide hydrochloride]: the figures for the half-inhibitory concentration (IC50) on BIR3 domain of XIAP and at BIR2 domain of XIAP were 16000 nM and 18 nM, respectively.

Turning to `CN[C@@H](C)C(=O)N[C@H]1CN(C(=O)c2ccc(NC(=O)OCC3c4ccccc4-c4ccccc43)cc2)c2ccccc2N(Cc2c(OC)ccc3cc(C(=O)OC)ccc23)C1=O` [Example 55, 5-[(S)-5-[4-(9H-Fluoren-9-ylmethoxycarbonylamino)-benzoyl]-3-((S)-2-methylamino-propionylamino)-2-oxo-2,3,4,5-tetrahydro-benzo[b][1,4]diazepin-1-ylmethyl]-6-methoxy-naphthalene-2-carboxylic acid methyl ester hydrochloride], the IC50 is greater than 54800 nM at BIR3 domain of XIAP and 22 nM on BIR2 domain of XIAP.

Take `CN[C@@H](C)C(=O)N[C@H]1CN(C(=O)c2ccc(N)cc2)c2ccccc2N(Cc2c(OC)ccc3cc(C(=O)O)ccc23)C1=O` [Example 57, 5-(((S)-5-(4-aminobenzoyl)-3-((S)-2-(methylamino)propanamido)-2-oxo-2,3,4,5-tetrahydro-1H-benzo[b][1,4]diazepin-1-yl)methyl)-6-methoxy-2-naphthoic acid hydrochloride]: the IC50 on BIR3 domain of XIAP was 20800 nM; at BIR2 domain of XIAP, 7 nM.

As for `CN[C@@H](C)C(=O)N[C@H]1CN2CCNC(=O)c3ccc4c(c(OC)ccc4c3)CN(C1=O)c1ccccc12` [Example 59, Cyclic-5-[(S)-5-(2-Amino-ethyl)-3-((S)-2-methylamino-propionylamino)-2-oxo-2,3,4,5-tetrahydro-benzo[b][1,4]diazepin-1-ylmethyl]-6-methoxy-naphthalene-2-carboxylic amide hydrochloride], the IC50 at BIR3 domain of XIAP turned out to be 31400 nM; on BIR2 domain of XIAP, 3780 nM.

As for `CN[C@@H](C)C(=O)N[C@H]1CN(C(=O)CCCCC(=O)O)c2ccccc2N(Cc2c(C)ccc3ccccc23)C1=O` [Example 60, 6-((S)-3-((S)-2-(methylamino)propanamido)-5-((2-methylnaphthalen-1-yl)methyl)-4-oxo-2,3,4,5-tetrahydro-1H-benzo[b][1,4]diazepin-1-yl)-6-oxohexanoic acid hydrochloride], the IC50 on BIR3 domain of XIAP is greater than 54800 nM; on BIR2 domain of XIAP, 166 nM.

As for `CN[C@@H](C)C(=O)N[C@H]1CN(C(=O)CCN)c2ccccc2N(Cc2c(OC)ccc3cc(C(=O)OC)ccc23)C1=O` [Example 61, 5-[(S)-5-(3-Amino-propionyl)-3-((S)-2-methylamino-propionylamino)-2-oxo-2,3,4,5-tetrahydro-benzo[b][1,4]diazepin-1-ylmethyl]-6-methoxy-naphthalene-2-carboxylic acid methyl ester hydrochloride], the IC50 on BIR3 domain of XIAP was greater than 54800 nM; at BIR2 domain of XIAP, 72 nM.

In the case of `CN[C@@H](C)C(=O)N[C@H]1CN2C(=O)CCNC(=O)c3ccc4c(c(OC)ccc4c3)CN(C1=O)c1ccccc12` [Example 63, Cyclic-5-[(S)-5-(3-Amino-propionyl)-3-((S)-2-methylamino-propionylamino)-2-oxo-2,3,4,5-tetrahydro-benzo[b][1,4]diazepin-1-ylmethyl]-6-methoxy-naphthalene-2-carboxylic amide hydrochloride], the IC50 came out at 43000 nM at BIR3 domain of XIAP and 19 nM at BIR2 domain of XIAP.

With `COc1ccc2ccccc2c1CN1C(=O)[C@@H](NC(=O)[C@H](C)N)CN(C(=O)c2ccc(N)cc2)c2ccccc21` [Example 65, (S)-2-amino-N—((S)-5-(4-aminobenzoyl)-1-((2-methoxynaphthalen-1-yl)methyl)-2-oxo-2,3,4,5-tetrahydro-1H-benzo[b][1,4]diazepin-3-yl)propanamide], the results for the IC50 at BIR3 domain of XIAP and at BIR2 domain of XIAP were 23600 nM and 7 nM, respectively.

For `CN[C@@H](C)C(=O)N[C@H]1CN(C(=O)c2ccc(N)cc2)c2ccccc2N(Cc2c(C)ccc3ccccc23)C1=O` [Example 67, (S)—N—((S)-5-(4-aminobenzoyl)-1-((2-methylnaphthalen-1-yl)methyl)-2-oxo-2,3,4,5-tetrahydro-1H-benzo[b][1,4]diazepin-3-yl)-2-(methylamino)propanamide hydrochloride], the IC50 at BIR3 domain of XIAP is greater than 54800 nM; on BIR2 domain of XIAP it was 22 nM.

Regarding `CN[C@@H](C)C(=O)N[C@H]1CN(C(=O)c2ccc(C(C)=O)cc2)c2ccccc2N(Cc2noc3cc(Br)ccc23)C1=O` [Example 69e], the IC50 at BIR3 domain of XIAP turned out to be 50300 nM; at BIR2 domain of XIAP, 49 nM.

As to `CN[C@@H](C)C(=O)N[C@H]1CN(C(=O)c2ccc(C(C)=O)cc2)c2ccccc2N(Cc2c(OC)ccc3ccccc23)C1=O` [Example 69g], the IC50 was 42500 nM at BIR3 domain of XIAP and 11 nM at BIR2 domain of XIAP.

As to `CC(=O)c1ccc(C(=O)N2C[C@H](NC(=O)[C@H](C)N)C(=O)N(Cc3c(OCC(F)(F)F)ccc4ccccc34)c3ccccc32)cc1` [Example 69h], the results for the IC50 at BIR3 domain of XIAP and on BIR2 domain of XIAP were 30300 nM and 20 nM, respectively.

For `CC(=O)c1ccc(C(=O)N2C[C@H](NC(=O)[C@H](C)N)C(=O)N(Cc3c(OC(F)F)ccc4ccccc34)c3ccccc32)cc1` [Example 69i], the IC50 is 52000 nM at BIR3 domain of XIAP and 39 nM on BIR2 domain of XIAP.

Regarding `COc1ccc2c(CN3C(=O)[C@@H](NC(=O)[C@H](C)N)CN(C(=O)c4ccc(C(C)=O)cc4)c4ccccc43)cc(=O)oc2c1` [Example 69j], the IC50 at BIR3 domain of XIAP is greater than 54800 nM; on BIR2 domain of XIAP, 213 nM.

With `CC(=O)c1ccc(C(=O)N2C[C@H](NC(=O)[C@H](C)N)C(=O)N(Cc3noc4ccccc34)c3ccccc32)cc1` [Example 69k], the IC50 at BIR3 domain of XIAP was greater than 54800 nM; on BIR2 domain of XIAP, 27 nM.

In the case of `CN[C@@H](C)C(=O)N[C@H]1CN(C(=O)c2ccc(N)cc2)c2ccccc2N(Cc2noc3ccccc23)C1=O` [Example 71, (S)—N—((S)-5-(4-Aminobenzoyl)-1-(benzo[d]isoxazol-3-ylmethyl)-2-oxo-2,3,4,5-tetrahydro-1H-benzo[b][1,4]diazepin-3-yl)-2-(methylamino)propanamide hydrochloride], the IC50 at BIR3 domain of XIAP is greater than 54800 nM; at BIR2 domain of XIAP, 64 nM.
